Assay results from PubChem BioAssay AID651765 (The Scripps Research Institute Molecular Screening Center, 2012).
Active and inactive are the calls of the source. The rule behind the calls is not given here.

System: HTR5A counterscreen cells, luminescence, activation
Experiment: HTR5A agonist-like luminescent signal – cell-based, luminescence, dose response, set 2, counter-screen for OPRM1-OPRD1 heterodimer activator project, late-stage follow-up (AID 651765)

CCOC(=O)C1(Cc2ccccc2C)CCCN(Cc2ccc(NC(C)=O)cc2)C1 (stereo not drawn)
EC50: > 50 µM (inactive)

CCOC(=O)C1(CCc2ccccc2)CCN(Cc2ccc(C(=O)OC)cc2)CC1
EC50: > 50 µM (inactive)

CCOC(=O)C1(CCc2ccccc2)CCN(Cc2c(O)cccc2OC)CC1
EC50: > 50 µM (inactive)

CCOC(=O)C1(Cc2ccc(OC)cc2)CCN(C(=O)c2ccc(N(C)C)cc2)CC1
EC50: > 50 µM (inactive)

C=Cc1ccc(C(=O)N2CCC(CCCc3ccccc3)(C(=O)OCC)CC2)cc1
EC50: > 50 µM (inactive)

CCOC(=O)C1(CCc2ccccc2)CCN(C(=O)Nc2ccc(C)cc2C)CC1
EC50: > 50 µM (inactive)

O=C(O)C1CCCCC1C(=O)Nc1ccc(CN2CCCCC2)cc1 (stereo not drawn)
EC50: > 50 µM (inactive)

CCOC(=O)C1CCCCN1Cc1ccc(NC(C)=O)cc1 (stereo not drawn)
EC50: > 50 µM (inactive)

CCOC(=O)C1(Cc2ccccc2)CCCN(Cc2ccc(NC(C)=O)cc2)C1 (stereo not drawn)
EC50: > 50 µM (inactive)

CCOC(=O)C1(CCc2ccccc2)CCCN(Cc2ccc(N3CCNC3=O)cc2)C1 (stereo not drawn)
EC50: > 50 µM (inactive)

CCOC(=O)C1CCN(Cc2ccc(NC(C)=O)cc2)CC1
EC50: > 50 µM (inactive)

CC(=O)Nc1ccc(CN2CCCC(CO)(CCc3ccccc3)C2)cc1 (stereo not drawn)
EC50: > 50 µM (inactive)

CCOC(=O)C1CCN(Cc2ccc(N(C)C)cc2)CC1
EC50: > 50 µM (inactive)

CCOC(=O)C1(CCOc2ccccc2)CCCN(Cc2ccc(NC(C)=O)cc2)C1 (stereo not drawn)
EC50: > 50 µM (inactive)

CCOC(=O)C1(CCc2ccccc2)CCN(Cc2ccc(OC)cc2)CC1
EC50: > 50 µM (inactive)

CCOC(=O)C1(CCc2ccccc2)CCN(Cc2ccncc2)CC1
EC50: > 50 µM (inactive)

C=Cc1ccc(C(=O)N2CCC(CCc3ccccc3)(C(=O)OCC)CC2)cc1
EC50: > 50 µM (inactive)

CCOC(=O)C1(CCOC)CCN(Cc2ccc(NC(C)=O)cc2)CC1
EC50: > 50 µM (inactive)

CCOC(=O)C1(CCOC)CCN(Cc2ccc(N(C)c3ccccc3)cc2)CC1
EC50: > 50 µM (inactive)

CCOC(=O)C1(Cc2ccccc2Cl)CCN(Cc2ccc(NC(C)=O)cc2)CC1
EC50: > 50 µM (inactive)

CCOC(=O)C1CCN(C(=O)c2ccc(N(C)C)cc2)CC1
EC50: > 50 µM (inactive)

CCOC(=O)C1(CC2CC2)CCN(Cc2ccc(NC(C)=O)cc2)CC1
EC50: > 50 µM (inactive)

CCOC(=O)C1(Cc2cccc(OC)c2)CCCN(Cc2ccc(NC(C)=O)cc2)C1 (stereo not drawn)
EC50: > 50 µM (inactive)

CCOC(=O)C1(CCOC)CCCN(Cc2ccc(NC(C)=O)cc2)C1 (stereo not drawn)
EC50: > 50 µM (inactive)

CCOC(=O)C1(CCc2ccccc2)CCN(Cc2ccc(O)cc2)CC1
EC50: > 50 µM (inactive)

CCOC(=O)C1(CCc2ccccc2)CCN(Cc2ccc(C#CC(C)(C)O)cc2)CC1
EC50: > 50 µM (inactive)

CCOC(=O)C1CCN(CCC(=O)Nc2ccc(C)cc2)CC1
EC50: > 50 µM (inactive)

CCOC(=O)C1(CC2CC2)CCN(C(=O)c2ccc(N3CCCCC3)cc2)CC1
EC50: > 50 µM (inactive)
